# Source: patent US6914045B2, “Glycopeptide antibiotics” (Wyeth Holdings Corporation, priority 2001, dated 2005)
# Numbered stars: 1 amine (or outer) side, 2 acyl side, 3 side chain; on linkers, the order of the positions; unused ones are H or OH. Square brackets hold non-standard residues; d marks the D form. Peptide text beside a SMILES is read from it. * marks the point of attachment. ξ: configuration not given here. X1 = N=C1NCC(C(O)C(N[*:1])C(=O)[*:2])N1C1OC(CO)C(O)C(O)C1O; ξEnduracididine(βξ-OH,4'ξ) = N=C1NCC(C(O)C(N)C(=O)O)N1; X2 = OCC1OC(OC2C(CO)OC(*)C(O)C2O)C(O)C(O)C1O; ξCha(3ξ-Me) = CC(C1CCCCC1)C(N)C(=O)O
# How the values were obtained:
# Assay in all cases: in vitro antibacterial evaluation, MIC by broth dilution
# Assay type in all cases: cell-based
# Streptococcus sp. = settings: broth dilution, 18 hours at 35° C.
# In short: (§1)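 Broth dilution per NCCLS standard M7-A2 in Muller-Hinton II […], with an inoculum of 5×10^5 CFU/mL and antibiotic spanning 64-0.06 μg/mL. The MIC is the lowest concentration that inhibits growth of the organism.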
# Enterococcus sp. = settings: broth dilution, 18 hours at 35° C.
# In short: as §1
# Staphylococcus sp. = tested on: Staphylococcus sp.
# In short: as §1
# Escherichia coli = settings: 18 hours at 35° C.
# [1] = broth dilution, 18 hours at 35° C.
# [2] = strain ATCC 29213; broth dilution, 18 hours at 35° C.
# [3] = strain GC 1131; broth dilution, 18 hours at 35° C.
# [4] = strain GC 3051; broth dilution, 18 hours at 35° C.
# [5] = strain GC 3053; broth dilution, 18 hours at 35° C.
# [6] = strain GC 4541; broth dilution, 18 hours at 35° C.
# [7] = strain GC 4542; broth dilution, 18 hours at 35° C.
# [8] = strain GC 4544; broth dilution, 18 hours at 35° C.
# [9] = strain GC 4545; broth dilution, 18 hours at 35° C.
smiles,measurement,setting,value
CC(c1ccccc1)C1NC(=O)CNC(=O)C(CO)NC(=O)C(C(O)C2CNC(=N)N2C2OC(CO)C(O)C3OC(C)(C)OC32)NC(=O)C(C(O)C2CNC(=N)N2)NC(=O)C(Cc2ccc(OC3OC(CO)C(OC4OC(CO)C(O)C(O)C4O)C4OC(C)(C)OC34)cc2)NC1=O (stereo not drawn) [Example 229],MIC Streptococcus agalactiae (GC 4564),Streptococcus sp.,>128 µg/mL
same,MIC Streptococcus pneumoniae (ATCC 6301),Streptococcus sp.,>128 µg/mL
same,MIC Streptococcus pneumoniae (GC 1894),Streptococcus sp.,>128 µg/mL
same,MIC Streptococcus pneumoniae (GC 4565),Streptococcus sp.,>128 µg/mL
same,MIC Streptococcus pyogenes (GC 4563),Streptococcus sp.,>128 µg/mL
same,MIC Streptococcus pneumoniae (ATCC 6301),"Streptococcus sp.; inoculum 5×10^5 CFU/mL, strain ATCC 6301",>128 µg/mL
same,MIC Streptococcus pneumoniae (GC 1894),"Streptococcus sp.; inoculum 5×10^5 CFU/mL, strain GC 1894",>128 µg/mL
same,MIC Streptococcus pyogenes (GC 4563),"Streptococcus sp.; inoculum 5×10^5 CFU/mL, strain GC 4563",>128 µg/mL
same,MIC Streptococcus agalactiae (GC 4564),"Streptococcus sp.; inoculum 5×10^5 CFU/mL, strain GC 4564",>128 µg/mL
same,MIC Streptococcus pneumoniae (GC 4565),"Streptococcus sp.; inoculum 5×10^5 CFU/mL, strain GC 4565",>128 µg/mL
same,MIC Enterococcus avium (GC 4558),Enterococcus sp.,128 µg/mL
same,MIC Enterococcus faecalis (ATCC 29212),Enterococcus sp.,>128 µg/mL
same,MIC Enterococcus faecalis (GC 2242),Enterococcus sp.,>128 µg/mL
same,MIC Enterococcus faecalis (GC 2691),Enterococcus sp.,>128 µg/mL
same,MIC Enterococcus faecalis (GC 3059),Enterococcus sp.,>128 µg/mL
same,MIC Enterococcus faecalis (GC 4552),Enterococcus sp.,>128 µg/mL
same,MIC Enterococcus faecalis (GC 4553),Enterococcus sp.,>128 µg/mL
same,MIC Enterococcus faecalis (GC 4554),Enterococcus sp.,>128 µg/mL
same,MIC Enterococcus faecalis (GC 6189),Enterococcus sp.,>128 µg/mL
same,MIC Enterococcus faecium (GC 2243),Enterococcus sp.,>128 µg/mL
same,MIC Enterococcus faecium (GC 4556),Enterococcus sp.,>128 µg/mL
same,MIC Enterococcus faecium (GC 4557),Enterococcus sp.,>128 µg/mL
same,MIC Enterococcus faecalis (ATCC 29212),"Enterococcus sp.; inoculum 5×10^5 CFU/mL, strain ATCC 29212",>128 µg/mL
same,MIC Enterococcus faecalis (GC 2242),"Enterococcus sp.; inoculum 5×10^5 CFU/mL, strain GC 2242",>128 µg/mL
same,MIC Enterococcus faecium (GC 2243),"Enterococcus sp.; inoculum 5×10^5 CFU/mL, strain GC 2243",>128 µg/mL
same,MIC Enterococcus faecalis (GC 2691),"Enterococcus sp.; inoculum 5×10^5 CFU/mL, strain GC 2691",>128 µg/mL
same,MIC Enterococcus faecalis (GC 3059),"Enterococcus sp.; inoculum 5×10^5 CFU/mL, strain GC 3059",>128 µg/mL
same,MIC Enterococcus faecalis (GC 4552),"Enterococcus sp.; inoculum 5×10^5 CFU/mL, strain GC 4552",>128 µg/mL
same,MIC Enterococcus faecalis (GC 4553),"Enterococcus sp.; inoculum 5×10^5 CFU/mL, strain GC 4553",>128 µg/mL
same,MIC Enterococcus faecalis (GC 4554),"Enterococcus sp.; inoculum 5×10^5 CFU/mL, strain GC 4554",>128 µg/mL
same,MIC Enterococcus faecium (GC 4556),"Enterococcus sp.; inoculum 5×10^5 CFU/mL, strain GC 4556",>128 µg/mL
same,MIC Enterococcus faecium (GC 4557),"Enterococcus sp.; inoculum 5×10^5 CFU/mL, strain GC 4557",>128 µg/mL
same,MIC Enterococcus avium (GC 4558),"Enterococcus sp.; inoculum 5×10^5 CFU/mL, strain GC 4558",128 µg/mL
same,MIC Enterococcus faecalis (GC 6189),"Enterococcus sp.; inoculum 5×10^5 CFU/mL, strain GC 6189",>128 µg/mL
same,MIC Coagulase Negative Staphylococcus (GC 4547),Staphylococcus sp.; [1],>128 µg/mL
same,MIC Coagulase Negative Staphylococcus (GC 4548),Staphylococcus sp.; [1],>128 µg/mL
same,MIC Coagulase Negative Staphylococcus (GC 4549),Staphylococcus sp.; [1],>128 µg/mL
same,MIC Coagulase Negative Staphylococcus (GC 4551),Staphylococcus sp.; [1],>128 µg/mL
same,MIC Coagulase Negative Staphylococcus (GC 6257),Staphylococcus sp.; [1],>128 µg/mL
same,MIC Staphylococcus aureus-SMITH (GC 4543),Staphylococcus sp.; [1],>128 µg/mL
same,MIC Staphylococcus haemolyticus (GC 4546),Staphylococcus sp.; [1],>128 µg/mL
same,MIC Staphylococcus aureus-SMITH (GC 4543),"Staphylococcus sp.; broth dilution, 18 hours at 35° C.; strain GC 4543",>128 µg/mL
same,MIC Staphylococcus haemolyticus (GC 4546),"Staphylococcus sp.; broth dilution, 18 hours at 35° C.; strain GC 4546",>128 µg/mL
same,MIC Coagulase Negative Staphylococcus (GC 4547),"Staphylococcus sp.; broth dilution, 18 hours at 35° C.; strain GC 4547",>128 µg/mL
same,MIC Coagulase Negative Staphylococcus (GC 4548),"Staphylococcus sp.; broth dilution, 18 hours at 35° C.; strain GC 4548",>128 µg/mL
same,MIC Coagulase Negative Staphylococcus (GC 4549),"Staphylococcus sp.; broth dilution, 18 hours at 35° C.; strain GC 4549",>128 µg/mL
same,MIC Coagulase Negative Staphylococcus (GC 4551),"Staphylococcus sp.; broth dilution, 18 hours at 35° C.; strain GC 4551",>128 µg/mL
same,MIC Coagulase Negative Staphylococcus (GC 6257),"Staphylococcus sp.; broth dilution, 18 hours at 35° C.; strain GC 6257",>128 µg/mL
same,MIC Staphylococcus aureus (ATCC 29213),Staphylococcus sp.; [2],>128 µg/mL
same,MIC Staphylococcus aureus (GC 1131),Staphylococcus sp.; [3],>128 µg/mL
same,MIC Staphylococcus aureus (GC 3051),Staphylococcus sp.; [4],>128 µg/mL
same,MIC Staphylococcus aureus (GC 3053),Staphylococcus sp.; [5],>128 µg/mL
same,MIC Staphylococcus aureus (GC 4541),Staphylococcus sp.; [6],>128 µg/mL
same,MIC Staphylococcus aureus (GC 4542),Staphylococcus sp.; [7],>128 µg/mL
same,MIC Staphylococcus aureus (GC 4544),Staphylococcus sp.; [8],>128 µg/mL
same,MIC Staphylococcus aureus (GC 4545),Staphylococcus sp.; [9],>128 µg/mL
same,MIC Escherichia coli (ATCC 25922),Escherichia coli,>128 µg/mL
same,MIC Escherichia coli (GC 4559),Escherichia coli,>128 µg/mL
same,MIC Escherichia coli (GC 4560),Escherichia coli,>128 µg/mL
"CC(C1CCCCC1)C1NC(=O)CNC(=O)C(CO)NC(=O)C(C(O)C2CNC(=N)N2C2OC(CO)C(O)C(O)C2O)NC(=O)C(C(O)C2CNC(=N)N2)NC(=O)C(Cc2ccc(OC3OC(CO)C(OC4OC(CO)C(O)C(O)C4O)C(O)C3O)cc2)NC1=O (stereo not drawn) [Example 51, Cyclo[3-cyclohexyl-2-aminobutanoyl-O-(4-O-hexopyranosylhexopyranosyl)tyrosyl-3-(2-iminoimidazolidin-4-yl)seryl-3-(3-hexopyranosyl-2-iminoimidazolidin-4-yl)-serylserylglycyl]] (cyclo(G[ξCha(3ξ-Me)]Y(X2)[ξEnduracididine(βξ-OH,4'ξ)][X1]S); configuration not given here)",MIC Streptococcus pneumoniae (ATCC 6301),Streptococcus sp.; strain ATCC 6301,8 µg/mL
same,MIC Streptococcus pneumoniae (GC 1894),Streptococcus sp.; strain GC 1894,4 µg/mL
same,MIC Streptococcus pyogenes (GC 4563),Streptococcus sp.; strain GC 4563,8 µg/mL
same,MIC Streptococcus agalactiae (GC 4564),Streptococcus sp.; strain GC 4564,16 µg/mL
same,MIC Streptococcus pneumoniae (GC 4565),Streptococcus sp.; strain GC 4565,8 µg/mL
same,MIC Enterococcus faecalis (ATCC 29212),Enterococcus sp.; strain ATCC 29212,>64 µg/mL
same,MIC Enterococcus faecalis (GC 2242),Enterococcus sp.; strain GC 2242,64 µg/mL
same,MIC Enterococcus faecium (GC 2243),Enterococcus sp.; strain GC 2243,>64 µg/mL
same,MIC Enterococcus faecalis (GC 2691),Enterococcus sp.; strain GC 2691,>64 µg/mL
same,MIC Enterococcus faecalis (GC 3059),Enterococcus sp.; strain GC 3059,>64 µg/mL
same,MIC Enterococcus faecalis (GC 4552),Enterococcus sp.; strain GC 4552,>64 µg/mL
same,MIC Enterococcus faecalis (GC 4553),Enterococcus sp.; strain GC 4553,>64 µg/mL
same,MIC Enterococcus faecalis (GC 4554),Enterococcus sp.; strain GC 4554,>64 µg/mL
same,MIC Enterococcus faecium (GC 4556),Enterococcus sp.; strain GC 4556,>64 µg/mL
same,MIC Enterococcus faecium (GC 4557),Enterococcus sp.; strain GC 4557,16 µg/mL
same,MIC Enterococcus avium (GC 4558),Enterococcus sp.; strain GC 4558,64 µg/mL
same,MIC Enterococcus faecalis (GC 6189),Enterococcus sp.; strain GC 6189,>64 µg/mL
same,MIC Staphylococcus aureus (ATCC 29213),Staphylococcus sp.; [2],32 µg/mL
same,MIC Staphylococcus aureus (GC 1131),Staphylococcus sp.; [3],32 µg/mL
same,MIC Staphylococcus aureus (GC 3051),Staphylococcus sp.; [4],32 µg/mL
same,MIC Staphylococcus aureus (GC 3053),Staphylococcus sp.; [5],64 µg/mL
same,MIC Staphylococcus aureus (GC 4541),Staphylococcus sp.; [6],32 µg/mL
same,MIC Staphylococcus aureus (GC 4542),Staphylococcus sp.; [7],32 µg/mL
same,MIC Staphylococcus aureus-SMITH (GC 4543),"Staphylococcus sp.; strain GC 4543; broth dilution, 18 hours at 35° C.",32 µg/mL
same,MIC Staphylococcus aureus (GC 4544),Staphylococcus sp.; [8],32 µg/mL
same,MIC Staphylococcus aureus (GC 4545),Staphylococcus sp.; [9],32 µg/mL
same,MIC Staphylococcus haemolyticus (GC 4546),"Staphylococcus sp.; strain GC 4546; broth dilution, 18 hours at 35° C.",32 µg/mL
same,MIC Coagulase Negative Staphylococcus (GC 4547),"Staphylococcus sp.; strain GC 4547; broth dilution, 18 hours at 35° C.",16 µg/mL
same,MIC Coagulase Negative Staphylococcus (GC 4548),"Staphylococcus sp.; strain GC 4548; broth dilution, 18 hours at 35° C.",16 µg/mL
same,MIC Coagulase Negative Staphylococcus (GC 4549),"Staphylococcus sp.; strain GC 4549; broth dilution, 18 hours at 35° C.",4 µg/mL
same,MIC Coagulase Negative Staphylococcus (GC 4551),"Staphylococcus sp.; strain GC 4551; broth dilution, 18 hours at 35° C.",64 µg/mL
same,MIC Escherichia coli (ATCC 25922),"Escherichia coli; strain ATCC 25922, broth dilution",>64 µg/mL
same,MIC Escherichia coli (GC 4559),"Escherichia coli; strain GC 4559, broth dilution",64 µg/mL
same,MIC Escherichia coli (GC 4560),"Escherichia coli; strain GC 4560, broth dilution",8 µg/mL
